pKd, pKi: −log10 of the molar value. Counter-ions that a name gives are not always drawn. Like-named read-outs stand apart in the source and are kept apart here.
Assays:
[1] = biological target: T1, human 5-hydroxytryptamine2C (h5HT2C) receptor (Homo sapiens, UniProt P28335); test: 5HT2C receptor binding ([125I]DOI displacement, CHO cell membranes)
T1 construct: expressed in transfected cells; host or cells: CHO (Chinese Hamster Ovary) cells; membrane preparation
T1 sequence (P28335 33-458): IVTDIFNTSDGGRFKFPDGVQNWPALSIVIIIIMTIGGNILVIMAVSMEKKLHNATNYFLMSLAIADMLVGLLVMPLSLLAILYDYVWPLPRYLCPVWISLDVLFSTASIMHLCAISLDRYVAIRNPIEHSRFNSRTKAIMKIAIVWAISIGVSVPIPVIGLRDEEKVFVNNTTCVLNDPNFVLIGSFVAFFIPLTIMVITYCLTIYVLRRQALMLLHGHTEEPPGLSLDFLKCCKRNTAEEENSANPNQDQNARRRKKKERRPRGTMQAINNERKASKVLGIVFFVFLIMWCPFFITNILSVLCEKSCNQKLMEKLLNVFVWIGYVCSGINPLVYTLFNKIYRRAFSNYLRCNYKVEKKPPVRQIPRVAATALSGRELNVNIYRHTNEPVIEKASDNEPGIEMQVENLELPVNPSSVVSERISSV

SMILES | melting point | pKi [1] | also measured
c1cc2c3c(c1)CC1CCCC1N3CCNC2 (stereo not drawn) (as salt: HCl) [Example 1, trans isomer, Trans-1,2,3,4,8,8a,9,10,11,11a-decahydro-cyclopenta[b][1,4]diazapino[6,7,1-ij]quinoline] | 190 °C (dec.) |  | 
c1cc2c3c(c1)C[C@@H]1CCC[C@@H]1N3CCNC2 (relative stereo) (as salt: HCl) [Example 1, cis isomer, Cis 1,2,3,4,8,8a,9,10,11,11a-decahydro-cyclopenta[b][1,4]diazepino[6,7,1-ij]quinoline] | 180 to 190 °C (dec.) |  | 
c1cc2c3c(c1)C[C@H]1CCCC[C@H]1N3CCNC2 (relative stereo) (as salt: HCl) [Example 2, cis isomer, (Cis)-1,2,3,4,8a,9,10,11,12,12a,-decahydro-8H-[1,4]diazepino[6,7,1-de]acridine] | 150 to 155 °C |  | 
c1cc2c3c(c1)C[C@@H]1CCC[C@@H]1N3CCNC2 (relative stereo) [Example 1, cis isomer, Cis 1,2,3,4,8,8a,9,10,11,11a-decahydro-cyclopenta[b][1,4]diazepino[6,7,1-ij]quinoline] |  | 6.93 | 
c1cc2c3c(c1)C[C@H]1CCCC[C@H]1N3CCNC2 (relative stereo) [Example 2, cis isomer, (Cis)-1,2,3,4,8a,9,10,11,12,12a,-decahydro-8H-[1,4]diazepino[6,7,1-de]acridine] |  | 6.29 | 
c1cc2c3c(c1)CC1CCCC1N3CCNC2 (stereo not drawn) [Example 1, trans isomer, Trans-1,2,3,4,8,8a,9,10,11,11a-decahydro-cyclopenta[b][1,4]diazapino[6,7,1-ij]quinoline] |  | 7.15 | 
c1cc2c3c(c1)CC1CCCCC1N3CCNC2 (stereo not drawn) [Example 2, trans isomer, (Trans)-1,2,3,4,8a,9,10,11,12,12a,-decahydro-8H-[1,4]diazepino[6,7,1-de]acridine] | 95 °C | 6.29 | 
CSc1ccc2c(c1)C(N1CCN(C)CC1)Cc1ccccc1S2 (stereo not shown) [Methiothepin, reference compound] |  |  | pKi ([1]; [125I]DOI binding, CHO membranes expressing h5HT2C, read-out: Ki (95% confidence interval), reference compounds): 8.34
COc1cc(CC(C)N)c(OC)cc1I (stereo not shown) [[^125I] DOI, reference compound] |  |  | pKd ([1]; read-out: dissociation constant, KD of [125I] DOI at the human serotonin 5HT2C receptor, saturation binding with increasing concentrations of [125I] DOI): 9.40
